From patent US20160272937A1, “METHODS OF GENERATING INTERMEDIATE MESODERM CELLS FROM HUMAN PLURIPOTENT STEM CELLS” (THE BRIGHAM AND WOMEN'S HOSPITAL, INC., priority 2013, published 2016)

What was measured:
[1] = system: human pluripotent stem cells (hPSCs); experiment: Spontaneous differentiation of CHIR-induced mesendodermal cells after CHIR withdrawal, marker immunocytochemistry; type: cell-based; conditions: day 4
Protocol: (§1) Mesendoderm differentiation—the media is changed to Advanced RPMI (A-RPMI, Invitrogen) supplemented with 1×L-glutamax and 1× penicillin/streptomycin and either CHIR99021 (CHIR, Stemgent), human Wnt3a (R&D systems), and/or human activin A (R&D systems) at the doses described. Definitive endoderm differentiation—cells are treated with A-RPMI+1×L-glu+1×P/S+5 μM CHIR for 24 hours, then A-RPMI+1×Lglu+1×P/S+100 ng/mL of activin A for 2-3 days. Hepatic differentiation—cells at the definitive endoderm stage are treated with A-RPMI+1×L-glu+1×P/S+1×B27 supplement (Invitrogen)+20 ng/mL BMP-4 (R&D systems)+10 ng/mL FGF2 (Invitrogen) for 5 days, then A-RPMI+1×L-glu+1×P/S+1×B27+10 ng/mL HGF for 5 days, then HCM Hepatocyte Culture Medium (Lonza) supplemented with 20 ng/mL Oncostatin M and 10 ng/mL HGF (Peprotech) for 5 days. Pancreatic differentiation—cells at the definitive endoderm stage are treated with DMEM/F12+2% FBS (Hyclone)+50 ng/mL FGF7 (R&D systems) for 2 days, then high-glucose DMEM (Mediatech)+1% B27+2 μM retinoic acid (Sigma)+0.25 μM KAAD cyclopamine (EMD Millipore)+100 ng/mL recombinant human Noggin (R&D systems) for 4 days, then high-glucose DMEM+1% B27+100 ng/mL Noggin+300 nM indolactam V (Stemgent)+1 μM ALK5 inhibitor II (Axxora) for 4 days. Anterior foregut endoderm differentiation—cells at the definitive endoderm stage are treated with DMEM/F12+1×L-glu+1×B27+200 ng/mL Noggin+10 μM SB431542 (Stemgent) for 3 days. For hindgut endoderm differentiation, cells at the definitive endoderm stage were treated with A-RPMI+1×L-glu+1×P/S+2% FBS+500 ng/mL FGF4 (R&D systems)+5 μM CHIR for 4 days. […] Intermediate mesoderm differentiation—cells are treated with A-RPMI+1×L-glu+1×P/S+5 μM CHIR for 24, 36, or 48 hours, then A-RPMI+1×L-glu+1×P/S+100 ng/mL FGF2+1 μM retinoic acid for 2-3 days. Cap mesenchyme differentiation—cells were treated with A-RPMI+13 L-glu+13 P/S+5 mM CHIR for 36 hours, then A-RPMI+13 L-glu+13 P/S+100 ng/ml FGF2+1 mM retinoic acid for 36-42 hours, then A-RPMI+13L-glu+13P/S+100 ng/ml FGF-9 (R&D Systems)+10 ng/ml activin A for 3 days.
For immunofluorescence studies, cultures are washed once with PBS (Invitrogen) and fixed in 4% paraformaldehyde for 15 min at room temperature (RT). Fixed cells are then washed three times in PBS and incubated in blocking buffer (0.3% Triton X-100 (Fisher Scientific) and 5% normal donkey serum (EMD Millipore) in PBS) for 1 hour at RT.
The cells are then incubated with primary antibody overnight at 4° C. or for 2 hours at RT in antibody dilution buffer (0.3% Triton X-100 and 1% BSA (Roche) in PBS). Cells are then washed three times in PBS and incubated with Alexa Fluor 488-, 555-, or 647-conjugated secondary antibodies (1:500) (Molecular Probes) in antibody dilution buffer for 1 hour at RT. For immunostaining with Biotinylated Lotus Tetragonolobus Lectin (LTL, Vector Labs), a Streptavidin/Biotin Blocking Kit (Vector Labs) and Alexa Fluor 488- or 647-conjugated Streptavidin (Molecular Probes) were used according to manufacturer's instructions.
Nuclei can be counterstained with DAPI (Sigma). […] Immunofluorescence is visualized using an inverted fluorescence microscope (Nikon Eclipse Ti, Tokyo, Japan). Quantification is performed by counting a minimum of five random fields at 10× magnification.
To determine whether treatment with CHIR alone is sufficient to induce differentiation towards IM, the Inventors investigated the intrinsic multipotency of CHIR-induced mesendodermal cells by withdrawing CHIR from the culture media after either 24 or 48 hours of induction and allowing the cells to differentiate for another 3-4 days (FIG. 2A).

[2] = system: hPSCs (hESC and hiPSC lines); experiment: Intermediate mesoderm differentiation: PAX2/LHX1 immunostaining; type: cell-based, human; conditions: CHIR pre-treatment 48 hours compared to 24 or 36 hours, all time points
Protocol: as §1, with “Intermediate mesoderm differentiation—cells are treated with A-RPMI+1×L-glu+1×P/S+5 μM CHIR for 24, 36, or 48 hours, then A-RPMI+1×L-glu+1×P/S+100 ng/mL FGF2+1 μM retinoic acid for 2-3 days. Cap mesenchyme differentiation—cells were treated with A-RPMI+13 L-glu+13 P/S+5 mM CHIR for 36 hours, then A-RPMI+13 L-glu+13 P/S+100 ng/ml FGF2+1 mM retinoic acid for 36-42 hours, then A-RPMI+13L-glu+13P/S+100 ng/ml FGF-9 (R&D Systems)+10 ng/ml activin A for 3 days.” left out
Nuclei can be counterstained with DAPI (Sigma). […] Immunofluorescence is visualized using an inverted fluorescence microscope (Nikon Eclipse Ti, Tokyo, Japan). Quantification is performed by counting a minimum of five random fields at 10× magnification. […]

hPSC-derived SIX2+ cells = experiment: Response of hPSC-derived SIX2+ cells to canonical Wnt signaling (CHIR); type: cell-based, human
Protocol: To test the competence of hPSC-derived SIX2+ cells to respond to canonical Wnt signaling, the Inventors treated cells on day 6 of differentiation with […] CHIR for 24 hours, followed by withdrawal of CHIR. […] Furthermore, hPSC-derived SIX2+ cells explanted into dissociated-reaggregated mouse embryonic kidneys formed organizing clusters of cells that expressed LTL (FIG. 7I). The Inventors therefore concluded that the ability of hPSCderived PAX2+LHX1+ cells to be differentiated into cells expressing multiple markers of kidney CMand that could form tubule like structures in response to Wnt signaling was consistent with the behavior and function of nephrogenic IM cells.

[3] = CHIR pulse 24 hours then withdrawal
[4] = 5 mM CHIR for 24 hours on day 6, read on day 8, compared with cells not treated with CHIR

## Cc1c[nH]c(-c2cnc(NCCNc3ccc(C#N)cn3)nc2-c2ccc(Cl)cc2Cl)n1 [CHIR99021]
[1]; [3]
  FOXF1+ lateral plate mesoderm cells: approximately 40%
  cells expressing pluripotency marker OCT4: 30-40%
[1]; CHIR treatment 48 hours
  appearance of OCT4+ cells: eliminated the appearance of OCT4+ cells
  cells staining positive for FOXF1: greater than 80%
[1]; CHIR treatment alone
  cells expressing PAX6: < 1%
  cells expressing SOX17: < 1%
  cells with protein expression of IM marker PAX2: < 1%
  cells with protein expression of paraxial mesoderm marker TBX6: < 10%
[2]
  PAX2 expression: less PAX2 expression
hPSC-derived SIX2+ cells; [4]
  SIX2 expression: downregulation of SIX2 expression
  expression of proximal tubule marker LTL: increased expression
hPSC-derived SIX2+ cells; within 24 hours of 5 mM CHIR treatment
  cell morphology: formation of tubular-like structures
